Assay results published in patent US7094770B2, “3′-or 2′-hydroxymethyl substituted nucleoside derivatives for treatment of hepatitis virus infections” (Pharmasset, Ltd., priority 2000, dated 2006).
pEC50: −log10 of the molar value. Like-named read-outs stand apart in the source and are kept apart here.

Key:
HIV = details: literature; cited from earlier work
[1] = Cytotoxicity in PBM cells; assay type: cell-based, human; details: human
Method: (§1) We also perform toxicity assays by measuring the inhibition of uptake of […] dye by treated cells. These assays are done in 96 well plates. After the standard 10 day treatment regimen medium is removed and PBS containing MTS dye added to each well. After a 2 hour incubation the absorbance of the metabolized product is measured at 490 nm.
(§2) Human PBM cells from healthy donors, seronegative for HIV-1 and HBV, are isolated by a single-step Ficoll-Hypaque discontinuous gradient centrifugation and propagated as described previously (Schinazi et al., Antimicrobial Agents Chemother., 1990, 34:1061; 1992, 36:2423; 1993, 37:875). Compounds are screened for activity against HIV-1 and cytotoxicity by a protocol reported previously reported by Schinazi, et al. The prototype strain of HIV-1LAI obtained from the Centers for Disease Control and Prevention, Atlanta, Ga., is used as the standard virus for the studies in human PBM cells.

HBV = assay: Cell culture assay for anti-HBV activity (2.2.15 cells, HBV DNA in medium by Southern blot); assay type: cell-based, Hepatitis B virus; details: for pEC50: read-out: Anti-HBV EC50; for Antiviral activity (in words): virus not named
From the text: We follow the protocol described by Korba and Gerin(Antiviral Res., 1992, 19:55) and Pai et al. (Antimicrobial Agents Chemother., 1996, 40:380) which is used widely in the field. The HepG 2 2.2.15 cells contain a stably integrated HBV genome, the transcript from which serves as a template for viral replication. The cells produce virions which are elaborated into the medium. The production of the virion DNA is monitored by analysis of medium by Southern blotting. Drugs which inhibit viral replication reduce the levels of virion DNA in the medium, relative to controls.
Confluent cells in 24 well tissue culture dishes are treated with test compounds starting at 1 nM and extending logarithmically to 10 μM (1 nM, 3.2, 10 nM, 32, 100 nM, 1 μM, 10 μM […]). Medium is changed […] every 3 days and DNA extracted from the 3, 6, and […] day samples. The virions are concentrated by polyethylene glycol precipitation (equal volume addition of PEG 8000). After cooling on ice the samples are spun and the pellets treated with SDS and Proteinase K followed by Phenol:Chloroform extraction and ethanol precipitation of the DNA. The DNA is analyzed for HBV sequences by Southern hybridization. The probe used for the analysis is a ^32P labeled Eco RI fragment from the HBV clone described by Korba et al. 3TC is used as a positive control compound with known activity against HBV.
System: The most widely used system for the study of anti-HBV agents is the hepatoma cell culture system with the HBV genome. These cells are designated as the 2.2.15 cells, AD38 cells and AD79 cells. The 2.2.15 cells were generated by the transfection of the human hepatoma cells—HepG2 with HBV DNA. (Sells, et al., Proc. Natl. Acad. Sci. USA 84:1005–1009, 1987) HBV viral replication takes place in these cells. The HBV replication can be monitored intracellularly as well as extracellularly in these cells.
Assay for Anti-HBV agents: 2.215 cells are grown in multi-well dishes in RPMI medium supplemented with 4% fetal bovine serum. After 3 to 4 days of growing the cells, they are treated with varying concentrations of the test compound(s). The test compounds are dissolved in DMSO or sterile water. Cultures without the addition of the test compounds serve as controls. The addition of the test compound(s) is repeated at 3-day intervals. The medium is changed and replaced with appropriate concentration of the test compound. At the end of the 9-day treatment period, the culture medium is harvested and processed for viral DNA. The viral DNA thus obtained is analyzed by Southern blot analysis. After the Southern transfer, the blot is subjected to hybridization to an HBV specific probe to detect HBV DNA. The hybriodization is carried out overnight. After the hybridization, free probe is removed by washing of the blots. The specific hybridization is visualized by autoradiography. Inhibition produced by the test compound is calculated with reference to the levels of HBV DNA in the control samples.

[2] = Cytotoxicity in Vero cells; assay type: cell-based; details: African green monkey
Method: as §1

HIV-1 = assay: Anti-HIV evaluation in human PBM cells; assay type: cell-based; details: for pEC50: HIV-1
From the text: as §2

[3] = Cytotoxicity in CEM cells; assay type: cell-based; details: human
Method: as §1

[4] = Cytotoxicity in HepG2 cells; assay type: cell-based; details: human
Method: as §1

[5] = Human immunodeficiency virus 1, PBMC

SMILES | Activity against HIV (in words) (HIV) | IC50 [1] | pEC50 (HBV; Hepatitis B virus) | IC50 at 10 day [2] | pEC50 (HIV-1; [5]) | IC50 at 10 day [3] | Inhibition of HBV replication (in words) (HBV) | IC50 at 10 day [4] | Inhibition of HIV replication (in words) (HIV-1) | pEC50 (HBV) | Antiviral activity (in words) (HBV) | pEC50 (HIV-1) | EC50 (HBV; Hepatitis B virus, read-out: Anti-HBV EC50 (μM))
Nc1ncnc2c1ncn2[C@H]1C[C@H](CO)[C@@H](CO)O1 [2′,3′-dideoxy-3′-hydroxymethyl-adenosine] | good activity |  |  |  |  |  |  |  |  |  |  |  | 
Cc1cn(C2CC3COCC3O2)c(=O)[nH]c1=O (stereo not drawn) [Compound 1 (Series 1)] |  | > 100 µM | < 5.00 | > 100 µM | < 4.00 |  |  |  |  |  |  |  | 
Cc1cn(C2OC(CO)C(CO)C2F)c(=O)[nH]c1=O (stereo not drawn) [Compound 1 (Series 2)] |  | > 100 µM | < 5.00 |  | < 4.00 |  |  |  |  |  |  |  | 
Cc1cn(C2OC(CO)C(CO)C2F)c(=O)nc1N (stereo not drawn) [Compound 2 (Series 2)] |  | > 100 µM | < 5.00 | > 100 µM | < 4.00 |  |  |  |  |  |  |  | 
Cc1cn(C2CC(CCl)C(CO)O2)c(=O)[nH]c1=O (stereo not drawn) [Compound 3 (Series 1)] |  | > 100 µM | < 5.00 | > 100 µM | < 4.00 |  |  |  |  |  |  |  | 
Cc1cn(C2CC(CI)C(CO)O2)c(=O)[nH]c1=O (stereo not drawn) [Compound 5 (Series 1)] |  | > 100 µM | < 5.00 | > 100 µM | < 4.00 |  |  |  |  |  |  |  | 
CC1=CC(C2CC(CO)N(C)O2)C(=O)NC1=O (stereo not drawn) [Compound 5 (Series 2)] |  | > 100 µM | < 5.00 |  | < 4.00 |  |  |  |  |  |  |  | 
Cc1cn(C2CC(CO)N(C)O2)c(=O)[nH]c1=O (stereo not drawn) [Compound 6 (Series 2)] |  | > 100 µM | < 5.00 | > 100 µM | < 4.00 | > 100 µM |  |  |  |  |  |  | 
Nc1ccn(C2OC(CO)C(CO)C2F)c(=O)n1 (stereo not drawn) [Compound 7 (Series 2)] |  | 48.8 µM | 7.40 | 56 µM | 5.59 | 5.1 µM | potent inhibitors | > 100 µM | potent inhibitors |  |  |  | 
O=c1ccn(C2OC(CO)C(CO)C2F)c(=O)[nH]1 (stereo not drawn) [Compound 13 (Series 2)] |  | > 100 µM | < 5.00 | > 100 µM | < 4.00 | > 100 µM |  |  |  |  |  |  | 
Cc1cn(C2CC(CO)C(CO)O2)c(=O)[nH]c1=O (stereo not drawn) [Compound 20 (Series 1)] |  | > 100 µM |  | > 100 µM |  | > 100 µM |  |  |  | 6.64 | moderate activity | 6.10 | 
CC1C(CO)OC(n2ccc(N)nc2=O)C1F (stereo not drawn) [Compound 20 (Series 2)] |  | > 100 µM | < 5.00 | > 100 µM | < 4.00 | > 100 µM | potent inhibitors |  | potent inhibitors |  |  |  | 
CC1C(CO)OC(n2cc(F)c(N)nc2=O)C1F (stereo not drawn) [Compound 21 (Series 2)] |  | > 100 µM | < 5.00 | > 100 µM | < 4.00 | > 100 µM |  |  |  |  |  |  | 
Cc1cn(C2OC(CO)C(C)C2F)c(=O)[nH]c1=O (stereo not drawn) [Compound 22 (Series 2)] |  | > 100 µM | < 5.00 | > 100 µM | < 4.00 | > 100 µM |  |  |  |  |  |  | 
Nc1ccn(C2OC(CO)C(CCO)C2F)c(=O)n1 (stereo not drawn) [Compound 24 (Series 2)] |  | > 100 µM | < 5.00 | > 100 µM | < 4.00 | > 100 µM |  |  |  |  |  |  | 
Cc1cn(C2CC(CO)=NO2)c(=O)[nH]c1=O (stereo not drawn) [Compound 28 (Series 2)] |  | > 100 µM | < 5.00 | > 100 µM | < 4.00 | > 100 µM |  |  |  |  |  |  | 
CCOP(=O)(CCC1=NOC(n2cc(C)c(=O)[nH]c2=O)C1)OCC (stereo not drawn) [Compound 33 (Series 2)] |  | > 100 µM |  | > 100 µM | < 4.00 | > 100 µM |  |  |  |  |  |  | > 10 µM
CN1OC(n2ccc(N)nc2=O)CC1CO (stereo not drawn) [Compound 39 (Series 2)] |  | > 100 µM | < 5.00 | > 100 µM | < 4.00 | > 100 µM |  |  |  |  |  |  | 
Cc1cn(C2OC(CO)C(N(C)O)[C@@H]2F)c(=O)[nH]c1=O (stereo partly drawn) [Compound 55 (Series 2)] |  | > 100 µM | < 5.00 | > 100 µM | 4.17 | > 100 µM |  |  |  |  |  |  | 
CN(O)C1C(CO)OC(n2cc(F)c(=O)[nH]c2=O)C1F (stereo not drawn) [Compound 60 (Series 2)] |  | > 100 µM | < 5.00 | > 100 µM | < 4.00 | > 100 µM |  |  |  |  |  |  | 
CNC1C(CO)OC(n2cc(C)c(=O)[nH]c2=O)C1F (stereo not drawn) [Compound 68 (Series 2)] |  | > 100 µM | < 5.00 | > 100 µM | < 4.00 | > 100 µM |  |  |  |  |  |  | 
CNC1C(CO)OC(n2ccc(=O)[nH]c2=O)C1F (stereo not drawn) [Compound 69 (Series 2)] |  | > 100 µM | < 5.00 | > 100 µM | < 4.00 | > 100 µM |  |  |  |  |  |  | 
CNC1C(CO)OC(n2ccc(N)nc2=O)C1F (stereo not drawn) [Compound 70 (Series 2)] |  | > 100 µM | ≥ 5.00 | > 100 µM | 5.62 | 109 µM | potent inhibitors |  | potent inhibitors |  |  |  | 
CCCCN(O)C1C(CO)OC(n2cc(C)c(=O)[nH]c2=O)C1F (stereo not drawn) [Compound 71 (Series 2)] |  | 13 µM | > 5.00 | 68.5 µM | 4.09 | 30.1 µM |  |  |  |  | moderate activities |  | 
